Measured values published in patent US20140377340A1, “HLA-DR BINDING PEPTIDES AND THEIR USES” (priority 2007, published 2014).

Columns and labels:
purified HLA DRB4*0101 = biological target: T1, purified HLA DRB4*0101 (Homo sapiens, UniProt P01903+P13762, G164S); test: HLA-DR radioligand binding inhibition assay, DRB4*0101; details: IC50 nM purified HLA DRB4 *0101, purified HLA DRB4*0101
T1 construct: purified from EBV transformed homozygous cell lines or single MHC allele transfected 721.221, C1R, or fibroblast lines; made in house
Protocol: (§1) Instead, wells of an opaque white 96-well Optiplate (Packard) are coated with 3 μg (100 μl@ 30 μg/ml) of HLA-specific antibody (Ab) that “capture” complexes of radiolabeled MHC and unlabeled peptide transferred from the molecular binding assay plate in 100 μl of 0.05% NP40/PBS. After a 3-hour incubation period, the supernatant is decanted and scintillation fluid (Microscint 20) added. Captured complexes are then measured on a microplate scintillation and luminescence counter (TopCount NXTTM; Packard).
(§2) HLA-DR purification. Fifteen distinct HLA-DR molecules were used in quantitative assays to measure the binding of peptides to solubilized HLA-DR molecules. […] Briefly, columns of inactivated Sepharose CL4B and Protein A Sepharose were used as pre-columns. HLA-DR molecules were captured by passage of lysates over LB3.1 monoclonal antibody (anti-HLA-DRA) columns. Antibody columns were washed with 10 mM Tris-HCL, pH8.0 with 1% (v/v) NP-40, followed by PBS containing 0.4% (w/v) n-octylglucoside.
(§3) Briefly, 1-10 nM of radiolabeled peptide was co-incubated for 2 days at either room temperature or 37° C. with 1 μM to 1 nM purified HLA-DR molecules in the presence of a cocktail of protease inhibitors. Assays were performed at various pH conditions, ranging from pH 4 to pH 7. […] After incubation, the percentage of HLA-DR-bound radioactivity is determined by capturing HLA-DR/peptide complexes on Optiplates (Packard Instruments, Meriden, Conn.) coated with the LB3.1 antibody and determining bound counts per minute using the TopCount microscintillation counter (Packard Instruments).

purified HLA DRB1*1501 = biological target: T2, purified HLA DRB1*1501 (Homo sapiens, UniProt P01903+P01911); test: HLA-DR radioligand binding inhibition assay, DRB1*1501
T2 construct: purified from EBV transformed homozygous cell lines or single MHC allele transfected 721.221, C1R, or fibroblast lines; made in house
Method in brief: (§4)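 Bound radioactivity is read after 3-hour capture of complexes in 0.05% NP40/PBS on antibody-coated plates. Binding reactions pair 1-10 nM labeled peptide with 1 μM to 1 nM HLA-DR for two days.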

purified HLA DRB1*0401 = biological target: T3, purified HLA DRB1*0401 (Homo sapiens, UniProt P01903+P01911, A100K/A169T/F76Y/I96L/K127E/L162R/M171V/N62H/P40V/Q125Y/R42H/S133A/S149N/S66Y/V115G/V209L/W38E); test: HLA-DR radioligand binding inhibition assay, DRB1*0401; details: IC50 nM purified HLA DRB1 *0401, purified HLA DRB1*0401
T3 construct: purified from EBV transformed homozygous cell lines or single MHC allele transfected 721.221, C1R, or fibroblast lines; made in house
Method in brief: as §4

purified HLA DRB1*0404 = biological target: T4, purified HLA DRB1*0404 (Homo sapiens, UniProt P01903+P01911, A100R/A169T/F76Y/I96L/K127E/L162R/M171V/N62H/P40V/Q125Y/R42H/S133A/S149N/S66Y/V209L/W38E); test: HLA-DR radioligand binding inhibition assay, DRB1*0404; details: IC50 nM purified HLA DRB1 *0404, purified HLA DRB1*0404
T4 construct: purified from EBV transformed homozygous cell lines or single MHC allele transfected 721.221, C1R, or fibroblast lines; made in house
Protocol: as §1, §2, §3

purified HLA DRB1*0405 = biological target: T5, purified HLA DRB1*0405 (Homo sapiens, UniProt P01903+P01911, A100R/A169T/D86S/F76Y/I96L/K127E/L162R/M171V/N62H/P40V/Q125Y/R42H/S133A/S149N/S66Y/V115G/V209L/W38E); test: HLA-DR radioligand binding inhibition assay, DRB1*0405; details: IC50 nM purified HLA DRB1 *0405, purified HLA DRB1*0405
T5 construct: purified from EBV transformed homozygous cell lines or single MHC allele transfected 721.221, C1R, or fibroblast lines; made in house
Method in brief: as §4

purified HLA DRB1*1302 = biological target: T6, purified HLA DRB1*1302 (Homo sapiens, UniProt P01903+P01911, A100E/A169T/K41T/L162R/M171V/P40S/Q125H/Q178H/Q39Y/Q99D/R42S/S66N/T262R/V115G/W38E/Y61H); test: HLA-DR radioligand binding inhibition assay, DRB1*1302
T6 construct: purified from EBV transformed homozygous cell lines or single MHC allele transfected 721.221, C1R, or fibroblast lines; made in house
Method in brief: as §4

purified HLA DRB1*1101 = biological target: T7, purified HLA DRB1*1101 (Homo sapiens, UniProt P01903+P01911, A100R/A169T/A87E/I96F/K41T/L162R/M171V/P40S/Q125H/Q178H/Q39Y/Q99D/R42S/S66Y/T262R/V115G/W38E); test: HLA-DR radioligand binding inhibition assay, DRB1*1101; details: IC50 nM purified HLA DRB1 *1101, purified HLA DRB1*1101
T7 construct: purified from EBV transformed homozygous cell lines or single MHC allele transfected 721.221, C1R, or fibroblast lines; made in house
T7 sequence (P01903 26-254, other chains not shown): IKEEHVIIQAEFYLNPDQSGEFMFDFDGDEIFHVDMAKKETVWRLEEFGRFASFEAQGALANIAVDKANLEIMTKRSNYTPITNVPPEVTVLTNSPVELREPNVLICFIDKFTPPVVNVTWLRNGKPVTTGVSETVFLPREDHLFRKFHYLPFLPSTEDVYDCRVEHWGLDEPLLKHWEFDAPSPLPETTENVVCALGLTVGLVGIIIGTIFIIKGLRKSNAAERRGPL
Method in brief: as §4

purified HLA DRB1*0701 = biological target: T8, purified HLA DRB1*0701 (Homo sapiens, UniProt P01903+P01911, A100R/A102G/A103Q/D57E/D86V/E43K/F76Y/K127E/L162R/M171V/P40G/Q125H/Q99D/R33Q/R42Y/R54Q/S133A/S66F/T210M/V115G/Y107V/Y59L/Y89S); test: HLA-DR radioligand binding inhibition assay, DRB1*0701; details: IC50 nM purified HLA DRB1 *0701, purified HLA DRB1*0701
T8 construct: purified from EBV transformed homozygous cell lines or single MHC allele transfected 721.221, C1R, or fibroblast lines; made in house
Method in brief: as §4

purified HLA DRB1*0101 = biological target: T9, purified HLA DRB1*0101 (Homo sapiens, UniProt P01903+P01911, A100R/D57E/F55L/F60I/F76Y/I96L/L162R/M171V/P40L/Q125E/R42F/V115G/Y59C); test: HLA-DR radioligand binding inhibition assay, DRB1*0101; details: IC50 nM purified HLA DRB1 *0101, purified HLA DRB1*0101
T9 construct: purified from EBV transformed homozygous cell lines or single MHC allele transfected 721.221, C1R, or fibroblast lines; made in house
Method in brief: as §4

purified HLA DRB5*0101 = biological target: T10, purified HLA DRB5*0101 (Homo sapiens, UniProt P01903+Q30154); test: HLA-DR radioligand binding inhibition assay, DRB5*0101; details: IC50 nM purified HLA DRB5 *0101, purified HLA DRB5*0101
T10 construct: purified from EBV transformed homozygous cell lines or single MHC allele transfected 721.221, C1R, or fibroblast lines; made in house
Method in brief: as §4

| SMILES | IC50 (purified HLA DRB4*0101) | IC50 (purified HLA DRB1*1501) | IC50 (purified HLA DRB1*0401) | IC50 (purified HLA DRB1*0404) | IC50 (purified HLA DRB1*0405) | IC50 (purified HLA DRB1*1302) | IC50 (purified HLA DRB1*1101) | IC50 (purified HLA DRB1*0701) | IC50 (purified HLA DRB1*0101) | IC50 (purified HLA DRB5*0101) |
| --- | --- | --- | --- | --- | --- | --- | --- | --- | --- | --- |
| CC[C@H](C)[C@H](NC(=O)[C@H](CC(C)C)NC(=O)[C@H](C)NC(=O)[C@@H](NC(=O)CNC(=O)[C@@H](NC(=O)[C@H](CC(C)C)NC(=O)[C@@H](NC(=O)CNC(=O)[C@@H](NC(=O)[C@H](CCSC)NC(=O)[C@@H](NC(=O)CNC(=O)[C@@H](NC(=O)[C@@H](N)[C@@H](C)O)C(C)C)[C@@H](C)CC)[C@@H](C)CC)C(C)C)C(C)C)C(C)C)C(=O)O [Peptide 1622.05] | 12100 nM | 7770 nM | > 20000 nM | > 20000 nM | > 20000 nM | 5640 nM | > 20000 nM | 4450 nM | – | – |
| CC[C@H](C)[C@H](NC(=O)CNC(=O)[C@H](CC(C)C)NC(=O)CNC(=O)[C@H](CCC(N)=O)NC(=O)[C@H](CC(C)C)NC(=O)[C@@H](NC(=O)[C@H](CC(C)C)NC(=O)[C@@H](N)CO)[C@@H](C)O)C(=O)N[C@@H](CO)C(=O)N[C@@H](Cc1c[nH]c2ccccc12)C(=O)N[C@@H](CC(C)C)C(=O)NCC(=O)N[C@@H](CC(C)C)C(=O)N[C@@H](CCCNC(=N)N)C(=O)O [Peptide 9019.0055] | 22 nM | 50 nM | 143 nM | 110 nM | 409 nM | – | 6310 nM | 3100 nM | 93 nM | > 20000 nM |
| CC(C)C[C@H](NC(=O)[C@@H](NC(=O)[C@H](CCCNC(=N)N)NC(=O)[C@H](CS)NC(=O)[C@@H](N)CCC(=O)O)C(C)C)C(=O)N[C@@H](CCC(N)=O)C(=O)NCC(=O)N[C@@H](CC(C)C)C(=O)N1CCC[C@H]1C(=O)N[C@@H](CCCNC(=N)N)C(=O)N[C@@H](CCC(=O)O)C(=O)N[C@@H](Cc1ccc(O)cc1)C(=O)N[C@H](C(=O)N[C@@H](CC(N)=O)C(=O)N[C@@H](C)C(=O)O)C(C)C [Peptide 9019.0063] | 2570 nM | – | 788 nM | 9350 nM | – | – | – | 4860 nM | – | – |
| CC[C@H](C)[C@H](NC(=O)CNC(=O)[C@@H](NC(=O)[C@@H](NC(=O)[C@H](C)NC(=O)[C@H](CO)NC(=O)[C@@H](NC(=O)[C@@H](NC(=O)[C@H](CO)NC(=O)[C@@H](NC(=O)[C@H](CC(C)C)NC(=O)[C@@H]1CCCN1C(=O)[C@H](CO)NC(=O)[C@H](C)N)[C@@H](C)O)[C@@H](C)CC)[C@@H](C)CC)C(C)C)C(C)C)C(=O)N[C@@H](CC(C)C)C(=O)O [Peptide 9019.0066] | 1500 nM | 59 nM | 29 nM | 36 nM | – | 14 nM | – | 24 nM | 15 nM | – |

Now from value to compound:

| IC50 (purified HLA DRB4*0101) | IC50 (purified HLA DRB1*1501) | IC50 (purified HLA DRB1*0401) | IC50 (purified HLA DRB1*0404) | IC50 (purified HLA DRB1*0405) | IC50 (purified HLA DRB1*1302) | IC50 (purified HLA DRB1*1101) | IC50 (purified HLA DRB1*0701) | IC50 (purified HLA DRB1*0101) | IC50 (purified HLA DRB5*0101) | SMILES |
| --- | --- | --- | --- | --- | --- | --- | --- | --- | --- | --- |
| 3110 nM | 6000 nM | 450 nM | 3000 nM | 447 nM | 443 nM | 5140 nM | 941 nM | – | > 20000 nM | CC[C@H](C)[C@H](N)C(=O)N[C@@H](CO)C(=O)N[C@@H](C)C(=O)N[C@H](C(=O)N[C@H](C(=O)NCC(=O)N[C@H](C(=O)N[C@@H](CC(C)C)C(=O)N[C@@H](CC(C)C)C(=O)N[C@H](C(=O)N[C@H](C(=O)N[C@H](C(=O)N[C@@H](CC(C)C)C(=O)NCC(=O)N[C@H](C(=O)O)C(C)C)C(C)C)C(C)C)C(C)C)[C@@H](C)CC)C(C)C)C(C)C [Peptide 9019.0067] |
| 607 nM | 1300 nM | – | 7010 nM | – | – | 172 nM | – | – | – | CC[C@H](C)[C@H](NC(=O)[C@H](CCSC)NC(=O)[C@H](Cc1c[nH]c2ccccc12)NC(=O)[C@H](CS)NC(=O)[C@H](CCCCN)NC(=O)[C@@H](NC(=O)[C@H](CCSC)NC(=O)[C@@H](NC(=O)[C@H](CCSC)NC(=O)[C@H](Cc1ccc(O)cc1)NC(=O)[C@@H](NC(=O)[C@@H](N)CC(=O)O)C(C)C)[C@@H](C)CC)C(C)C)C(=O)N[C@@H](CC(=O)O)C(=O)N[C@@H](CO)C(=O)N[C@@H](CCC(=O)O)C(=O)O [Peptide 9019.0094] |
